Results from US20240315246A1, “METHOD OF USING SIMAZINE FOR CONTROLLING ANNUAL BLUEGRASS IN COOL SEASON-TURFGRASSES” (priority 2023, published 2024).

Tests used:
[1] = test system: cool-season turfgrass species; assay: Margin of safety on desired cool-season turfgrass species; conditions: in vivo
[2] = test system: ryegrass
Description: For example, when converting from overseeded ryegrass turf to perennial bermudagrass in the spring season, sublethal doses of Sapphire herbicide (or other ryegrass-removal herbicides) are applied to cause the ryegrass to slowly fade away. […] In other aspects, a method of enhancing color and quality of a turf including the cool-season turfgrass species comprises co-administering Simazine with Penoxsulam or other ryegrass-removal herbicides to the turf comprising the cool-season turfgrass species. In such implementations, a sub-lethal dosage application of Simazine in relation to the desirable cool-season turfgrass species is co-administered with Penoxsulam or other ryegrass-removal herbicides.

[3] = test system: seashore Paspalum (Paspalum vaginatum); assay: Selective control of seashore Paspalum in bermudagrass turf; type: in vivo; conditions: single application 0.5 lb AI/A
Description: (§1) Bermudagrass and seashore Paspalum (Paspalum vaginatum) are both warm-season turfgrasses. However, when one species is desired, often the other species is found to contaminate the desired species. When seashore Paspalum contaminates bermudagrass, the result is undesirable. It was discovered that Simazine may be used to selectively remove the seashore Paspalum because bermudagrass is much more tolerant of Simazine than is seashore Paspalum.

[4] = test system: Poa annua; assay: Field trial: control of Poa annua in turf comprising cool-season turfgrasses, multiple low-rate applications; type: in vivo; conditions: multiple applications at rates as low as 0.05 lbs AI/A; no photo documentation
Protocol: (§2) Unless noted otherwise, the data and results shown herein are from trials performed in Phoenix, AZ and would be representative of application of the methods described herein in a hot climate. However, Simazine is effective in management of annual bluegrass infestation in a turf comprising cool-season turfgrass species in cool, high-altitude climates as well as in hot climates (see FIG. 10). The tests were conducted according to standards required by the U.S. Environmental Protection Agency for evaluating herbicides.
However, multiple applications of lower rates may provide greater safety to the ryegrass than a higher rate single application even though both may effectively control the annual bluegrass (FIGS. 4A-6B). Multiple applications of Simazine at lower rates reduce the risk of overdosing the desirable cool-season turfgrass due to application overlaps, which occur often during turf treatments.

[5] = test system: ryegrass; assay: Safety to ryegrass seeded after treatment of bermudagrass turf; type: in vivo; conditions: applied four days prior to planting ryegrass; 43 days after seeding
Description: Simazine may also be applied during the transition of a turf from warm-season turfgrass species to cool-season turfgrass species. Simazine is not injurious to desired cool-season turfgrasses when applied prior to planting seed. FIG. 11A show soon-to-be-dormant bermudagrass turf treated with simazine four days prior to planting ryegrass into the turf.

[6] = test system: annual bluegrass (Poa annua); assay: Field trial: control of annual bluegrass in ryegrass turf; type: in vivo
Protocol: Unless noted otherwise, the data and results shown herein are from trials performed in Phoenix, AZ and would be representative of application of the methods described herein in a hot climate. […] The tests were conducted according to standards required by the U.S. Environmental Protection Agency for evaluating herbicides.
FIG. 1A depicts a ryegrass/annual bluegrass turf test area that was subjected to four treatments. Initial treatments were made in December. Treatment area #1 received a low application rate (0.25 lb AI/A) of Simazine followed by a second low rate application one month later. Treatment area #2 received two medium rate (0.5 lb AI/A) applications on the same schedule as treatment area #1. Treatment area #3 received a single medium rate application. Treatment area #4 received no Simazine applications. The test area was evaluated 90 days after the first application as shown in FIG. 1A and the quantification data is presented in FIG. 1B.
FIG. 2B represents a single application at 0.75 lb AI/A using the 90DF formulation. […] FIG. 3A compares single application of application rates of 0.25 lb AI/A, 0.5 lb AI/A, 0.75 lb AI/A, and 1.0 lb AI/A at 86 days after treatment. FIG. 3B quantifies the percentage of annual bluegrass coverage on the test turf at 79 days after treatment.

[7] = test system: annual bluegrass (Poa annua); assay: Suppression of annual bluegrass flowers and seedheads in ryegrass turf; type: in vivo
Description: The test turfs shown in FIGS. 9A and 9B are ryegrass turfs infested with Poa annua that received two applications of Simazine at a rate of 0.25 lb AI/A per application.
However, applying a sub-lethal dosage of Simazine in relation to annual bluegrass still improves the quality of the turf comprising cool-season turfgrasses. Using applications that are sub-lethal to annual bluegrass (at least in the near term), simazine treatment suppresses the production of annual bluegrass flowers and seedheads rendering the turf more desirable.
The #1 plot in FIG. 8A was treated with Simazine (0.25 lb AI/A). […] The other areas were untreated and the annual bluegrass there produced prolific flowers and seedheads. FIGS. 9A and 9B show multiple applications made to ryegrass turf infested with Poa annua.

[8] = test system: bermudagrass; assay: Tolerance of bermudagrass turf; type: in vivo; conditions: single application 0.5 lb AI/A
Description: as §1

[9] = test system: annual bluegrass (Poa annua); assay: Field trial: control of annual bluegrass in bentgrass turf; type: in vivo
Description: Bentgrass turfgrass species are more sensitive to Simazine application than ryegrass. […] While there was still a large presence of annual bluegrass at 13 days after treatment, the patch of annual bluegrass is visibly ill (FIG. 7A).

[10] = test system: annual bluegrass (Poa annua); assay: Co-administration with ryegrass-weakening herbicides A and B on ryegrass turf infested with Poa annua; type: in vivo; conditions: Simazine mixed with herbicide A or B; 60 days after treatment
Description: Herbicides A and B were applied at low dosages to weaken the existing ryegrass turf which was infested with Poa annua. Poa annua is not sensitive to either A or B. As shown in the untreated section, Poa annua would otherwise proliferate during the herbicidal treatment at 60 days after treatment, but co-administration with Simazine prevents Poa annua proliferation during the herbicidal treatment.
Because annual bluegrass is not sensitive to certain herbicides used for weakening existing ryegrass, treatment with such herbicides may not be beneficial in removing the turf as the annual bluegrass would proliferate in the area. However, mixing Simazine with herbicides improves the results of the herbicidal treatments in turf removal. […] Annual bluegrass is not sensitive to either herbicide.

[11] = test system: annual bluegrass; assay: Test turf in a cool high-altitude climate; type: in vivo, Poa annua
Protocol: FIG. 10 is a photograph of a test turf in a cool high-altitude climate.
as §2

[12] = ryegrass turf, two applications of 0.25 lb AI/A (FIGS. 9A, 9B)

Compound: CCNc1nc(Cl)nc(NC(C)C)n1 [atrazine]
- margin of safety on desired cool-season turfgrass species, compared with Simazine [1]: lesser margin of safety

Compound: COc1cnc(OC)n2nc(NS(=O)(=O)c3c(OCC(F)F)cccc3C(F)(F)F)nc12 [Sapphire, 2-(2,2-difluoroethoxy)-N-(5,8-dimethoxy-[1,2,4]triazolo[1,5-c]pyrimidin-2-yl)-6-(trifluoromethyl)benzenesulfonamide]
- colour and quality of ryegrass during conversion to bermudagrass ([2]; sublethal doses of ryegrass-removal herbicide alone): degrades the color and quality of the ryegrass

Compound: CCNc1nc(Cl)nc(NCC)n1 [Simazine, 6-chloro-2-N,4-N-diethyl-1,3,5-triazine-2,4-diamine]
- colour of treated ryegrass versus untreated ([2]; single application, 1.0 and 0.75 lb AI/A (FIGS. 2A, 2B)): deeper green color
- colour and quality of ryegrass turf during conversion to bermudagrass ([2]; sub-lethal Simazine about 0.25 AI/A included with Sapphire treatment): enhances the color and quality of the ryegrass turf
- control of seashore Paspalum [3]: eradicate seashore Paspalum
- control of Poa annua [4]: successfully controlled Poa annua
- effect on young ryegrass [5]: did not affect the young ryegrass
- selective control of annual bluegrass ([6]; another site, single application 1.0 lb AI/A, 4 L formulation): selective control of annual bluegrass
- annual bluegrass coverage on the test turf ([6]; single application 0.25 lb AI/A, 79 days after treatment, untreated over 80%): 50%
- visual presence of annual bluegrass within the treated turf ([6]; single application 1.0 lb AI/A, 79 days after treatment): effectively removed visual presence of any annual bluegrass
- flowering and seedhead production in surviving annual bluegrass ([7]; plot #1 FIG. 8A, 0.25 lb AI/A): suppressed
- kill of annual bluegrass ([7]; plot #1 FIG. 8A, 0.25 lb AI/A): only a portion of the annual bluegrass was killed
- formation of flowers and seedheads [7, 12]: greatly suppressed
- kill of Poa annua [7, 12]: did not kill the Poa annua
- damage to bermudagrass [8]: not damaging bermudagrass
- condition of annual bluegrass patch ([9]; 0.5 lb AI/A, 13 days after treatment): visibly ill
- coverage of the test area with annual bluegrass ([9]; 0.5 lb AI/A, 38 days after treatment): significantly reduced
- control of annual bluegrass infestation ([9]; application at 0.5 lb AI/A): effectively controlled annual bluegrass infestation
- annual bluegrass proliferation during herbicidal treatment [10]: without allowing annual bluegrass to proliferate
- turf colour compared to untreated turf [11]: darker green color
- control of annual bluegrass infestation ([11]; effective dose specific to the climate): control of annual bluegrass infestation
